Here are results for 13 molecules from ChEMBL document CHEMBL5325490, “Lipophilic modification of salirasib modulates the antiproliferative and antimigratory activity” (Bioorg Med Chem, 2023).

For experiment [1], the system named is NCI-H1299. Nature of the experiment: Anti-invasive activity in human H1299 cells assessed as reduction in cell invasion at 50 uM incubated for 24 hrs by transwell migration assay. The format is functional, cell-based.
Experiment [2] concerns NCI-H1299. Kind of experiment: Antimigratory activity against human H1299 cells assessed as reduction in cell migration at 50 uM incubated for 24 hrs by wound healing assay. The experiment is classed as functional, cell-based.
A further experiment deals with T47D. Kind of experiment: Antiproliferative activity against human T47D cells assessed as inhibition of culture growth incubated for 48 hrs by SRB assay. The experiment is classed as functional. For orientation: In SRB staining, fixed cells bind dye roughly in proportion to their protein.
A further experiment deals with HeLa. Nature of the experiment: Antiproliferative activity against human HeLa cells assessed as inhibition of culture growth incubated for 48 hrs by SRB assay. The experiment is classed as functional.
For the next experiment, the system named is SW1573. Nature of the experiment: Antiproliferative activity against human SW1573 cells assessed as inhibition of culture growth incubated for 48 hrs by SRB assay. The format is functional.
The subject of the next experiment is A549. Kind of experiment: Antiproliferative activity against human A549 cells assessed as inhibition of culture growth incubated for 48 hrs by SRB assay. The format is functional.
Another experiment has as its system HBL-100. Nature of the experiment: Antiproliferative activity against human HBL-100 cells assessed as inhibition of culture growth incubated for 48 hrs by SRB assay. The format is functional.
The test system of experiment [3] is NCI-H1299. Nature of the experiment: Antiproliferative activity against human H1299 cells assessed as inhibition of culture growth incubated for 48 hrs by SRB assay. The format is functional.
A further experiment deals with Plasmodium falciparum. Kind of experiment: Antimalarial activity against Plasmodium falciparum assessed as inhibition of parasite growth measured after 72 hrs by NLuc method. The experiment is classed as functional, organism-based.

Calls of active or inactive are those of the source. No cut-off for these calls is given here.

As to `CC(C)=CCC/C(C)=C/CSc1ccccc1C(=O)O`, the outcome with NCI-H1299 [1] and in the experiment with NCI-H1299 [2] was Active.

For `CCCCCCCCCCSc1ccccc1C(=O)O`, in the experiment with NCI-H1299 [1], the outcome was inactive. Further, the result in the experiment on NCI-H1299 [2] was Active.

For `CC(C)=CCC/C(C)=C/CC/C(C)=C/CC/C(C)=C/CSc1ccccc1C(=O)O`, the GI50 – broadly, the concentration giving 50% growth inhibition – stood at 41 µM with T47D; 29 µM in the experiment with HeLa; 37 µM in the experiment with SW1573; 38 µM with A549; 23 µM in the experiment on HBL-100.

Turning to `CCCCCCCCCCCCCCCCn1cc(CSc2ccccc2C(=O)O)nn1`, the GI50 with T47D was 20 µM; in the experiment with HeLa, 6.9 µM; in the experiment on NCI-H1299 [3], 27 µM; in the experiment on SW1573 it was 9.3 µM; with A549 it was 9.2 µM; with HBL-100 it was 14 µM.

Regarding `CC(C)=CCC/C(C)=C/Cn1cc(CSc2ccccc2C(=O)O)nn1`, the outcome with NCI-H1299 [2] was inactive.

Consider `CCCCCCCCn1cc(CSc2ccccc2C(=O)O)nn1`, for which the GI50 is 93 µM with T47D; 39 µM in the experiment on HeLa; above 100 µM with NCI-H1299 [3]; 47 µM with SW1573; 61 µM in the experiment with A549; 40 µM with HBL-100. Moreover, the outcome in the experiment with NCI-H1299 [2] was inactive.

Consider `CC(C)=CCC/C(C)=C/CC/C(C)=C/CSc1ccccc1C(=O)O` [SALIRASIB], for which the GI50 in the experiment with T47D worked out at 42 µM; in the experiment on HeLa, 34 µM; with NCI-H1299 [3] it was 85 µM; in the experiment with SW1573, 41 µM; in the experiment on A549, 34 µM; in the experiment with HBL-100 it was 22 µM.

On to `CCCCCCCCSc1ccccc1C(=O)O`, for which the outcome in the experiment on NCI-H1299 [1] and in the experiment with NCI-H1299 [2] was Active.

For the molecule `C/C(=C\Cn1cc(CSc2ccccc2C(=O)O)nn1)CCC[C@H](C)CCC[C@H](C)CCCC(C)C`, the IC50 (usually the concentration that inhibits the measured activity by half) in the experiment on Plasmodium falciparum was determined as 9.75 µM. Besides, the GI50 in the experiment with T47D amounted to 9.6 µM; with HeLa it was 4.3 µM; in the experiment with NCI-H1299 [3], 59 µM; in the experiment on SW1573, 5.8 µM; with A549, 5.4 µM; in the experiment with HBL-100, 10 µM.

Regarding `C/C(=C\CSc1ccccc1C(=O)O)CCCC(C)CCCC(C)CCCC(C)C` (centres undefined), the GI50 in the experiment on T47D is 18 µM; with HeLa, 12 µM; in the experiment on NCI-H1299 [3], above 100 µM; in the experiment on SW1573 it was 15 µM; in the experiment on A549 it was 14 µM; with HBL-100, 14 µM.

`CC[C@@]1(O)C(=O)OCc2c1cc1n(c2=O)Cc2cc3ccccc3nc2-1` [CAMPTOTHECIN]: the GI50 came out at 2 µM in the experiment on T47D, 0.6 µM with HeLa, 0.3 µM with SW1573 and 0.2 µM with HBL-100.

Consider `COc1cc([C@@H]2c3cc4c(cc3[C@@H](O[C@@H]3O[C@@H]5CO[C@@H](C)O[C@H]5[C@H](O)[C@H]3O)[C@H]3COC(=O)[C@H]23)OCO4)cc(OC)c1O` [ETOPOSIDE], for which the GI50 with T47D worked out at 22 µM; in the experiment with HeLa, 3.3 µM; in the experiment with SW1573 it was 14 µM; with A549, 1.5 µM; in the experiment with HBL-100 it was 1.4 µM.

Consider `CC(C)=CCC/C(C)=C/CC/C(C)=C/Cn1cc(CSc2ccccc2C(=O)O)nn1`, for which the GI50 with T47D was determined as 52 µM; with HeLa it was 33 µM; in the experiment on NCI-H1299 [3], 102 µM; with SW1573, 40 µM; in the experiment with A549, 40 µM; in the experiment with HBL-100, 33 µM.
